Data: patent publication US9234050B2, “Chitosan derivatives to treat animals or optimize animal health” (priority 2008, dated 2016)
Read-outs that look alike come from different tables or passages of the source. Where a SMILES comes first, the peptide text is derived from it. Bridges are numbered along the chain shown (N, C = ends). [ ]: non-standard residue; d: D form. The star is where a group is joined. Ileψ(thiazoline)Cys = CC[C@H](C)[C@H](N)C1=N[C@H](C(=O)*)CS1; dOrn = NCCC[C@@H](N)C(=O)O

How the values were obtained:
[1] = system: S. enterica (ATCC 700720)
[2] = system: P. multocida (ATCC 11039); settings: for Bacitracin (log reduction alone): BAC 32 μg/mL
[3] = system: C. perfringens (ATCC 12919); type: cell-based
[4] = Poultry study in feed (weight gain); type: in vivo, chicks; settings: dosage 55 mg/kg in feed; treated feed fed for 8 days
Excerpt: Various doses of two different functionalized chitosan-arginines were mixed in feed, both originally 84% degree of deacetylation. “10% functionalized” has a MW of 39 kDa, 12% functionalized, % DDA=82 and polydispersity index (PDI) of 1.5. “30% functionalized” has a MW of 27 kDa, 26% functionalized, % DDA=82 and polydispersity index (PDI) of 1.7. Dosing of feed may be irregular due to challenges in mixing extremely small quantities of material uniformly (sprayed on cornmeal from water solution, mixed with feedmeal). Twelve replicate pens of five chicks were used for each treatment. Treated feed was fed for 8 days, and weight gain and feed conversion were examined after 21 days (comparison with day 1). Awt21 is the average weight gain after 21 days and P Diff is the statistical P value between the measured and control.

**Q.** For `CC[C@H](C)[C@H](N)C1=N[C@H](C(=O)N[C@@H](CC(C)C)C(=O)N[C@H](CCC(=O)O)C(=O)N[C@H](C(=O)N[C@H]2CCCCNC(=O)[C@H](CC(N)=O)NC(=O)[C@@H](CC(=O)O)NC(=O)[C@H](Cc3cnc[nH]3)NC(=O)[C@@H](Cc3ccccc3)NC(=O)[C@H]([C@@H](C)CC)NC(=O)[C@@H](CCCN)NC2=O)[C@@H](C)CC)CS1` [Bacitracin] ({Ileψ(thiazoline)Cys}-L[dE]IK[dOrn]I[dF]H[dD]N; lactam 4-C), which “Bacitracin (log reduction alone)” value ([1]; Assay 1, BAC 4 μg/mL) is on record?
**A.** Its value is 0.08 log.

**Q.** And the “Bacitracin (log reduction alone)” value ([1]; Assay 1, BAC 8 μg/mL)?
**A.** The value was 0.08 log.

**Q.** And the “Bacitracin (log reduction alone)” value ([1]; Assay 2, BAC 2 μg/mL)?
**A.** The value was 0.2 log.

**Q.** And the “Bacitracin (log reduction alone)” value ([1]; Assay 2, BAC 4 μg/mL)?
**A.** The value was 0 log.

**Q.** What about the “Bacitracin (log reduction alone)” value ([2]; Assay 1) of the same compound?
**A.** The value was 0 log.

**Q.** What about the “Bacitracin (log reduction alone)” value ([2]; Assay 2) of the same compound?
**A.** Its value is 0.2 log.

**Q.** And the bactericidal concentration ([2]; P. multocida (ATCC 11039))?
**A.** Its bactericidal concentration is over 128 µg/mL.

**Q.** With `CN(C)[C@@H]1C(O)=C(C(N)=O)C(=O)[C@@]2(O)C(O)=C3C(=O)c4c(O)cccc4[C@@](C)(O)[C@H]3C[C@@H]12` [Tetracycline] as the compound, how does the “Tetracycline (log reduction alone)” value ([3]; Assay 1, TET 0.05 μg/mL) read?
**A.** The value was 0.1 log.

**Q.** And the “Tetracycline (log reduction alone)” value ([3]; Assay 2, TET 0.2 μg/mL)?
**A.** Its value is 0.1 log.

**Q.** For Penicillin, which “Awt21 (average weight gain after 21 days)” value [4] is on record?
**A.** The value was 0.852 kg.
